# Measurements taken from patent US20250230193A1, “CYCLIC COMPOUND HAVING SELECTIVE KRAS INHIBITORY EFFECT ON HRAS AND NRAS” (CHUGAI SEIYAKU KABUSHIKI KAISHA, priority 2022, published 2025).
# Where a SMILES comes first, the peptide text is derived from it. Bridges are numbered along the chain shown (N, C = ends). [ ]: non-standard residue; d: D form. The star is where a group is joined. hPhe(3-Cl-4-CF3) = N[C@@H](CCc1ccc(C(F)(F)F)c(Cl)c1)C(=O)O; NPrPhe(4-CF3) = CCCN[C@@H](Cc1ccc(C(F)(F)F)cc1)C(=O)O; NMeGly(cPent) = CN[C@H](C(=O)O)C1CCCC1; Pro(4,4-F2) = O=C(O)[C@@H]1CC(F)(F)CN1; Ac4c(3,3-Me2) = CC1(C)CC(N)(C(=O)O)C1; NMeD = CN[C@@H](CC(=O)O)C(=O)O; NMeL = CN[C@@H](CC(C)C)C(=O)O; Morpholide = C1CN(*)CCO1; Ac5c = NC1(C(=O)O)CCCC1; Aze = O=C(O)[C@@H]1CCN1; Ac4c = NC1(C(=O)O)CCC1; Sar = CNCC(=O)O
# Tests used:
# [1] = molecular target: GDP-bound NRAS wild-type protein (Homo sapiens, UniProt P01111); experiment: Binding to NRAS by surface plasmon resonance (SPR), Single Cycle Kinetics; conditions: for NRAS/KRAS (ratio of KD value for NRAS to KD value for KRAS) / NRAS/KRAS (ratio of KD value with respect to NRAS to KD value with respect to KRAS): GDP-bound NRAS wild-type vs GDP-bound KRAS wild-type
# Chain of GDP-bound NRAS wild-type protein (P01111 whole entry): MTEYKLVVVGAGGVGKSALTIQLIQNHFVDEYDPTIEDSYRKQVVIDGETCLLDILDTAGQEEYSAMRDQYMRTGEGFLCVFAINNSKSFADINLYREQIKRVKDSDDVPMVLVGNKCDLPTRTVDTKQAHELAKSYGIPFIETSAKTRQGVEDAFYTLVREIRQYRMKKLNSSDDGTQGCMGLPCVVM
# [2] = molecular target: GDP-bound HRAS wild-type protein (Homo sapiens, UniProt P01112); experiment: Binding to HRAS by surface plasmon resonance (SPR), Single Cycle Kinetics; conditions: for HRAS/KRAS (ratio of KD value for HRAS to KD value for KRAS) / HRAS/KRAS (ratio of KD value with respect to HRAS to KD value with respect to KRAS): GDP-bound HRAS wild-type vs GDP-bound KRAS wild-type
# Chain of GDP-bound HRAS wild-type protein (P01112 whole entry): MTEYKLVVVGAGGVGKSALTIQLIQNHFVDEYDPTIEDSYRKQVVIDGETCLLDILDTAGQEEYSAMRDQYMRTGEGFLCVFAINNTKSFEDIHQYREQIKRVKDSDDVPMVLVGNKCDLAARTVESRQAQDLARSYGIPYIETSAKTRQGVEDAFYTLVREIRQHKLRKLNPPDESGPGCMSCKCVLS
smiles,measurement,setting,value
CCO[C@@H]1C[C@H]2C(=O)NC3(CC(C)(C)C3)C(=O)N(C)[C@@H](C3CCCC3)C(=O)N3CCC[C@@H]3CC(=O)N(C)[C@@H](CC3CC3)C(=O)N[C@@H]([C@@H](C)CC)C(=O)N(C)CC(=O)N(C)[C@H]3C/C=C\CCN(C3=O)[C@@H](Cc3ccc(C(F)(F)F)cc3)C(=O)N(C)CC(=O)N[C@@H](CCc3cc(F)c(C(F)(F)F)c(F)c3)C(=O)N2C1 [PP1611],NRAS/KRAS (ratio of KD value for NRAS to KD value for KRAS),[1]; SPR,B (a compound having 3 or more and less than 10 is denoted as B)
same,HRAS/KRAS (ratio of KD value for HRAS to KD value for KRAS),[2]; SPR,B (a compound having 3 or more and less than 10 is denoted as B)
CCC(CC)[C@H]1C(=O)N(C)[C@H](C(=O)N2CCCCC2)CC(=O)N(C)[C@@H](COC)C(=O)N[C@@H]([C@@H](C)CC)C(=O)N(C)CC(=O)N(C)[C@H]2C/C=C\CCN(C2=O)[C@@H](Cc2ccc(C(F)(F)F)cc2)C(=O)N(C)CC(=O)N[C@@H](CCc2cc(F)c(C(F)(F)F)c(F)c2)C(=O)N2C[C@H](OC(C)C)C[C@H]2C(=O)NC2(CC(C)(C)C2)C(=O)N1C [PP2608],NRAS/KRAS (ratio of KD value with respect to GDP-bound NRAS wild-type protein to KD value with respect to KRAS),"[1]; KD ratio NRAS/KRAS, class symbols",AA (a compound having 20 or more is denoted as AA)
same,HRAS/KRAS (ratio of KD value with respect to GDP-bound HRAS wild-type protein to KD value with respect to KRAS),"[2]; KD ratio HRAS/KRAS, class symbols",A (a compound having 10 or more and less than 20 is denoted as A)
"CCCN1C(=O)CN(C)C(=O)[C@@H]2CCN2C(=O)[C@H]([C@@H](C)CC)NC(=O)[C@H](CC(C)C)N(C)C(=O)C[C@@H](C(=O)N2CCOCC2)N(C)C(=O)[C@H](C2CCCC2)N(C)C(=O)C2(CCCC2)NC(=O)[C@@H]2CC(F)(F)CN2C(=O)[C@H](CCc2ccc(C(F)(F)F)c(Cl)c2)NC(=O)CN(C)C(=O)[C@@H]1Cc1ccc(C(F)(F)F)cc1 [PP0403] ([NMeL]I[Aze][Sar][NPrPhe(4-CF3)][Sar][hPhe(3-Cl-4-CF3)][Pro(4,4-F2)][Ac5c][NMeGly(cPent)][NMeD]-Morpholide; lactam N-11)",NRAS/KRAS (ratio of KD for GDP-bound NRAS wild-type to KD for KRAS),"[1]; KD ratio NRAS/KRAS, SPR",B (a compound having 3 or more and less than 10 is denoted as B)
same,HRAS/KRAS (ratio of KD for GDP-bound HRAS wild-type to KD for KRAS),"[2]; KD ratio HRAS/KRAS, SPR",B (a compound having 3 or more and less than 10 is denoted as B)
CCO[C@@H]1C[C@H]2C(=O)NC3(CC(C)(C)C3)C(=O)N(C)[C@@H](C(CC)CC)C(=O)N(C)[C@H](C(=O)N3CCCC3)CC(=O)N(C)[C@@H](C)C(=O)N[C@@H]([C@@H](C)CC)C(=O)N(C)CC(=O)N(C)[C@H]3C/C=C\CCN(C3=O)[C@@H](Cc3ccc(C(F)(F)F)cc3)C(=O)N(C)CC(=O)N[C@@H](CCc3ccc(C(F)(F)F)c(OC)c3)C(=O)N2C1 [PP2163],NRAS/KRAS (ratio of KD value with respect to NRAS to KD value with respect to KRAS),[1]; SPR,A (a compound having 10 or more and less than 20 is denoted as A)
same,HRAS/KRAS (ratio of KD value with respect to HRAS to KD value with respect to KRAS),[2]; SPR,A (a compound having 10 or more and less than 20 is denoted as A)
"CCCN1C(=O)CN(C)C(=O)CN(C)C(=O)[C@H]([C@@H](C)OC)NC(=O)[C@H](CC(C)C)N(C)C(=O)C[C@@H](C(=O)N2CCOCC2)N(C)C(=O)[C@H](C2CCCC2)N(C)C(=O)C2(CC(C)(C)C2)NC(=O)[C@@H]2CCCN2C(=O)[C@H](CCc2ccc(C(F)(F)F)c(Cl)c2)NC(=O)CN(C)C(=O)[C@@H]1Cc1ccc(C(F)(F)F)cc1 [PP1963] ([NMeL]T(Me)[Sar][Sar][NPrPhe(4-CF3)][Sar][hPhe(3-Cl-4-CF3)]P[Ac4c(3,3-Me2)][NMeGly(cPent)][NMeD]-Morpholide; lactam N-11)",NRAS/KRAS (ratio of KD value for NRAS to KD value for KRAS),[1]; SPR,B (a compound having 3 or more and less than 10 is denoted as B)
same,HRAS/KRAS (ratio of KD value for HRAS to KD value for KRAS),[2]; SPR,C (A compound having a KD ratio of 0.1 or more and less than 3 is denoted as C)
CCC[C@H]1C(=O)N[C@@H]([C@@H](C)CC)C(=O)N(C)CC(=O)N(C)[C@H]2C/C=C\CCN(C2=O)[C@@H](Cc2ccc(C(F)(F)F)cc2)C(=O)N(C)CC(=O)N[C@@H](CCc2ccc(C(F)(F)F)c(OC)c2)C(=O)N2C[C@H](OCC)C[C@H]2C(=O)N(C)C2(CCC2)C(=O)N(C)[C@@H](C(CC)CC)C(=O)N(C)[C@H](C(=O)N(C)C)CC(=O)N1C [PP2382],NRAS/KRAS (ratio of KD value with respect to NRAS to KD value with respect to KRAS),[1]; SPR,A (a compound having 10 or more and less than 20 is denoted as A)
same,HRAS/KRAS (ratio of KD value with respect to HRAS to KD value with respect to KRAS),[2]; SPR,A (a compound having 10 or more and less than 20 is denoted as A)
"CCCN1C(=O)CN(C)C(=O)[C@@H]2CCN2C(=O)[C@H]([C@@H](C)CC)NC(=O)[C@H](CC(C)C)N(C)C(=O)C[C@@H](C(=O)N(C)C)N(C)C(=O)[C@H](C2CCCC2)N(C)C(=O)C2(CCC2)NC(=O)[C@@H]2CC(F)(F)CN2C(=O)[C@H](CCc2ccc(C(F)(F)F)c(Cl)c2)NC(=O)CN(C)C(=O)[C@@H]1Cc1ccc(C(F)(F)F)cc1 [PP0432] ([NMeL]I[Aze][Sar][NPrPhe(4-CF3)][Sar][hPhe(3-Cl-4-CF3)][Pro(4,4-F2)][Ac4c][NMeGly(cPent)][NMeD]-NMe2; lactam N-11)",NRAS/KRAS (ratio of KD value with respect to GDP-bound NRAS wild-type protein to KD value with respect to KRAS),"[1]; KD ratio NRAS/KRAS, SPR",B (a compound having 3 or more and less than 10 is denoted as B)
same,HRAS/KRAS (ratio of KD value with respect to GDP-bound HRAS wild-type protein to KD value with respect to KRAS),"[2]; KD ratio HRAS/KRAS, SPR",B (a compound having 3 or more and less than 10 is denoted as B)
